Assay results: ChEMBL document CHEMBL5696439 (Cancer Res, 2010)
Active and inactive are the calls of the source. The rule behind the calls is not given here.

Assays:
HCT-116 = assay: Antitumor activity against human HCT-116 cells xenografted in female nude mouse model assessed as suppression in P-AKT at S473 level at 50 mg/kg, iv administered once a week and measured at least 8 hrs by immunoblot analysis; format: functional, organism-based
[1] = target: Homeodomain-interacting protein kinase 4 (Homo sapiens) (UniProt Q8NE63); assay: Inhibition of recombinant human full-length GST-tagged HIPK4 expressed in insect cells at 2 uM using Ser/Thr 18 as substrate measured after 1 hr by Z'-LYTE assay relative to control; conditions: Insect cell
[2] = target: Serine/threonine-protein kinase MARK1 (Homo sapiens) (UniProt Q9P0L2); assay: Inhibition of recombinant human full length GST-tagged MARK1 expressed in baculovirus expression system at 2 uM using Ser/Thr 21 as substrate measured after 1 hr by Z'-LYTE assay relative to control
[3] = target: 3-phosphoinositide-dependent protein kinase 1 (Homo sapiens) (UniProt O15530); assay: Inhibition of recombinant human full length His-tagged PDK1 expressed in baculovirus expression system at 2 uM using Ser/Thr 06 as substrate measured after 1 hr by Z'-LYTE assay relative to control
A498 = assay: Synergistic antitumor activity against human A498 cells xenografted in female nude mouse model assessed as cause in tumor regression at 50 mg/kg, po qd administered as 5 days on/2 days off regimen for 4 cycles in the presence of BEV; format: functional, organism-based; conditions: time 28.0 day
[4] = target: BDNF/NT-3 growth factors receptor (Homo sapiens) (UniProt Q16620); assay: Inhibition of recombinant human His-tagged NTRK2 (526-838 residues) expressed in insect cells at 2 uM using Tyr 01 as substrate measured after 1 hr by Z'-LYTE assay relative to control; conditions: Insect cell
[5] = target: Tyrosine-protein kinase Mer (Homo sapiens) (UniProt Q12866); assay: Inhibition of recombinant human GST-tagged MERTK (578-872 residues) expressed in insect cells at 2 uM using Tyr 02 as substrate measured after 1 hr by Z'-LYTE assay relative to control; conditions: Insect cell
NCI-H157 = assay: Antiproliferative activity against human NCI-H157 cells assessed as cell growth inhibition incubated for 24 hrs by MTS assay; format: functional, cell-based; conditions: NCI-H157, 24 h
[6] = target: Calcium/calmodulin-dependent protein kinase type II subunit delta (Homo sapiens) (UniProt Q13557); assay: Inhibition of recombinant human full-length His-tagged CAMK2D expressed in insect cells at 2 uM using Ser/Thr 04 as substrate measured after 1 hr by Z'-LYTE assay relative to control; conditions: Insect cell
[7] = system: Tyrosine-protein kinase ABL1 (Homo sapiens), P00519 [T315I]; assay: Inhibition of recombinant human full-length His-tagged ABL1 T315I mutant expressed in insect cells at 2 uM using Tyr 02 as substrate measured after 1 hr by Z'-LYTE assay relative to control; conditions: Insect cell
MDA-MB-361 [8] = assay: Antitumor activity against human MDA-MB-361 cells xenografted in female nude mouse model assessed as suppression in P-AKT at S473 level at 50 mg/kg, iv administered once a week and measured at least 8 hrs by immunoblot analysis; format: functional, organism-based
MDA-MB-231 = assay: Antiproliferative activity against human MDA-MB-231 cells assessed as cell growth inhibition incubated for 24 hrs by MTS assay; format: functional, cell-based; conditions: MDA-MB-231, 24 h
[9] = target: PAS domain-containing serine/threonine-protein kinase (Homo sapiens) (UniProt Q96RG2); assay: Inhibition of recombinant human GST-tagged PASK (879-1323 residues) expressed in insect cells at 2 uM using Ser/Thr 07 as substrate measured after 1 hr by Z'-LYTE assay relative to control; conditions: Insect cell
[10] = target: Ribosomal protein S6 kinase alpha-6 (Homo sapiens) (UniProt Q9UK32); assay: Inhibition of recombinant human full length GST-tagged RPS6KA6 expressed in insect cells at 2 uM using Ser/Thr 20 as substrate measured after 1 hr by Z'-LYTE assay relative to control; conditions: Insect cell
mTORC2 (Homo sapiens) = mTORC2 (Homo sapiens) (UniProt P42345+Q6R327+Q9BVC4+Q9BPZ7); conditions: U-87 MG, dose 0.025-2 µmol/L, time 6.0 hrs
[11] = target: Serine/threonine-protein kinase PLK2 (Homo sapiens) (UniProt Q9NYY3); assay: Inhibition of recombinant human full length GST-tagged PLK2 expressed in baculovirus expression system at 2 uM using Ser/Thr 16 as substrate measured after 1 hr by Z'-LYTE assay relative to control
[12] = target: Homeodomain-interacting protein kinase 1 (Homo sapiens) (UniProt Q86Z02); assay: Inhibition of recombinant human GST-tagged HIPK1 (158-555 residues) expressed in insect cells at 2 uM using Ser/Thr 09 as substrate measured after 1 hr by Z'-LYTE assay relative to control; conditions: Insect cell
[13] = target: Dual specificity tyrosine-phosphorylation-regulated kinase 4 (Homo sapiens) (UniProt Q9NR20); assay: Inhibition of recombinant human full-length GST-tagged DYRK4 expressed in insect cells at 2 uM using Ser/Thr 09 as substrate measured after 1 hr by Z'-LYTE assay relative to control; conditions: Insect cell
[14] = target: Misshapen-like kinase 1 (Homo sapiens) (UniProt Q8N4C8); assay: Inhibition of recombinant human GST-tagged MINK1 (1-320 residues) expressed in insect cells at 2 uM using Ser/Thr 07 as substrate measured after 1 hr by Z'-LYTE assay relative to control; conditions: Insect cell
[15] = target: Mitogen-activated protein kinase 11 (Homo sapiens) (UniProt Q15759); assay: Inhibition of recombinant human full length His-tagged MAPK11 expressed in insect cells at 2 uM using Ser/Thr 15 as substrate measured after 1 hr by Z'-LYTE assay relative to control; conditions: Insect cell
[16] = target: Calcium/calmodulin-dependent protein kinase type II subunit beta (Homo sapiens) (UniProt Q13554); assay: Inhibition of recombinant human full-length His-tagged CAMK2B expressed in insect cells at 2 uM using Ser/Thr 17 as substrate measured after 1 hr by Z'-LYTE assay relative to control; conditions: Insect cell
MDA-MB-361 [17] = assay: Induction of apoptosis in human MDA-MB-361 cells assessed as little increase in G1 phase at 5 micromol/L incubated for 12 hrs by FACS analysis relative to control; format: functional, cell-based; conditions: dose 5.0 µmol/L
[18] = target: Serine/threonine-protein kinase mTOR (Homo sapiens, UniProt P42345); assay: Inhibition of human full-length Flag-tagged mTOR expressed in HEK293 cells using His6-S6K as substrate measured after 2 hrs in presence of ATP by DELFIA
[19] = target: Receptor tyrosine-protein kinase erbB-2 (Homo sapiens) (UniProt P04626); assay: Inhibition of recombinant human His-tagged ERBB2 (676-1255 residues) expressed in insect cells at 2 uM using Tyr 06 as substrate measured after 1 hr by Z'-LYTE assay relative to control; conditions: Insect cell
[20] = target: Megakaryocyte-associated tyrosine-protein kinase (Homo sapiens) (UniProt P42679); assay: Inhibition of recombinant human full length His-tagged MATK expressed in E. coli at 2 uM using Tyr 01 as substrate measured after 1 hr by Z'-LYTE assay relative to control
Sequence of Megakaryocyte-associated tyrosine-protein kinase (Homo sapiens) (P42679 whole entry): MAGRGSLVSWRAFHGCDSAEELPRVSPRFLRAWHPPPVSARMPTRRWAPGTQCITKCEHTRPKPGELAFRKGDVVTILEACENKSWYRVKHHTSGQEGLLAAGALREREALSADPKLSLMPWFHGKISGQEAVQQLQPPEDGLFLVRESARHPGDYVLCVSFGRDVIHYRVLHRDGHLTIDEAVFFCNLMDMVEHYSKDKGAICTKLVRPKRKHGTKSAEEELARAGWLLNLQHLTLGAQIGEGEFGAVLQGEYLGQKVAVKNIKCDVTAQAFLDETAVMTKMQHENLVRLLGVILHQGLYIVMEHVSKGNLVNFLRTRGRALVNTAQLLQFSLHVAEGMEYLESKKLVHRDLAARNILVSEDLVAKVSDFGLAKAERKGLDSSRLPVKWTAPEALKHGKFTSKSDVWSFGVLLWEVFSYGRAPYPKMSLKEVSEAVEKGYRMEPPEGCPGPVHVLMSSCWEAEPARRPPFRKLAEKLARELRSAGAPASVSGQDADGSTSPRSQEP

Sequence of Homeodomain-interacting protein kinase 4 (Homo sapiens) (Q8NE63 whole entry): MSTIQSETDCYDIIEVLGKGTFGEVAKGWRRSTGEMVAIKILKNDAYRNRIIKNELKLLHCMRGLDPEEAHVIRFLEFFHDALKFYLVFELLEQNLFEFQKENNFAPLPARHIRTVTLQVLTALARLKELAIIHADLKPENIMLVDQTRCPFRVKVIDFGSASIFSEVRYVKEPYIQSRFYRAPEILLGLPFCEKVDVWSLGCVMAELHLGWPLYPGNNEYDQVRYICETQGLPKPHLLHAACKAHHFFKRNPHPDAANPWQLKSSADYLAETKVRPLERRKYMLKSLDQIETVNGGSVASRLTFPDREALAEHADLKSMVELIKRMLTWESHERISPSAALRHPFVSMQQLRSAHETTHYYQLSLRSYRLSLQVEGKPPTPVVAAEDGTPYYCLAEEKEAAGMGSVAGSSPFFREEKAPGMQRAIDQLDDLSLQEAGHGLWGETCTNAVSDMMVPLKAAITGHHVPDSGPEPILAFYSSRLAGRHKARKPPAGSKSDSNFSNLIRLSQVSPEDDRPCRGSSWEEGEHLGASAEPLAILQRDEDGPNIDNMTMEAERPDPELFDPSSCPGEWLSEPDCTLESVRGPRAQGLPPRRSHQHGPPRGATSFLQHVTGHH
Sequence of Tyrosine-protein kinase Mer (Homo sapiens) (Q12866 whole entry, the tested form may be a part): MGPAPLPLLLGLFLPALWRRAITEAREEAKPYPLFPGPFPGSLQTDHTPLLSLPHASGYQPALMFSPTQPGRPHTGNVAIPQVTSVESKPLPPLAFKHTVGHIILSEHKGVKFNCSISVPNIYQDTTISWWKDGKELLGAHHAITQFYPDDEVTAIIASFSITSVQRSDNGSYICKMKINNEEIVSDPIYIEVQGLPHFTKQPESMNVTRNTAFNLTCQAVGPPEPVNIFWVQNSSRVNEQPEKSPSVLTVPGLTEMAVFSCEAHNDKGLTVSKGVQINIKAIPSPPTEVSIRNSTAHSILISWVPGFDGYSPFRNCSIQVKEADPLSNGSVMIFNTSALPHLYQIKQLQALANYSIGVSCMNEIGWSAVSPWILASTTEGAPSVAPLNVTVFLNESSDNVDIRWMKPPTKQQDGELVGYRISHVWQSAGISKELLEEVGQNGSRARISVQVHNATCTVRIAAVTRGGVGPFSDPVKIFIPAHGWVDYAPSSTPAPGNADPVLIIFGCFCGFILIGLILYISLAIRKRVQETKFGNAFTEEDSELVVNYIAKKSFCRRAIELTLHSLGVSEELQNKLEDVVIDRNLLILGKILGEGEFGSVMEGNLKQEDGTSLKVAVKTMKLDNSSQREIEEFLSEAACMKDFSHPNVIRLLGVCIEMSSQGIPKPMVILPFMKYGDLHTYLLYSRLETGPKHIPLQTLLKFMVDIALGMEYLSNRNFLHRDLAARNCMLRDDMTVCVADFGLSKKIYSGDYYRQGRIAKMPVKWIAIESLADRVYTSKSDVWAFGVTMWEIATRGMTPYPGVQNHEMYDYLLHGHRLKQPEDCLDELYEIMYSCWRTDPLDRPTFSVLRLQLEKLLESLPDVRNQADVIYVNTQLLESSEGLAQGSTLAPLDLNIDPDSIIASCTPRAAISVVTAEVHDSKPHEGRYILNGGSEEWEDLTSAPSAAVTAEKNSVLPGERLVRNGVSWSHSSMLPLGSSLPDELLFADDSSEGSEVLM
Sequence of Calcium/calmodulin-dependent protein kinase type II subunit delta (Homo sapiens) (Q13557 whole entry): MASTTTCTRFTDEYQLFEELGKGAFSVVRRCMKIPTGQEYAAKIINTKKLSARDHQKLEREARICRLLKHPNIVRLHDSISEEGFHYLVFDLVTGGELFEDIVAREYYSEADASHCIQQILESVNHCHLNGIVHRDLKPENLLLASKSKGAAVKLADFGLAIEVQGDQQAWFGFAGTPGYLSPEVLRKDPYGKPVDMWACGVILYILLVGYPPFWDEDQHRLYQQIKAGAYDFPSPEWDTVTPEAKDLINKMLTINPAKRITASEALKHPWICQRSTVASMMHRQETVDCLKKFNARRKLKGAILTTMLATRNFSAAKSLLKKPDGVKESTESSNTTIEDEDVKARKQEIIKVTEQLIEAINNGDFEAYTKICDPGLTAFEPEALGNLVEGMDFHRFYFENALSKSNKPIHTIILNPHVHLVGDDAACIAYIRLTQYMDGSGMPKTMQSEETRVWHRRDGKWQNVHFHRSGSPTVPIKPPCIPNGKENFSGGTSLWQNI
Sequence of Dual specificity tyrosine-phosphorylation-regulated kinase 4 (Homo sapiens) (Q9NR20 whole entry, the tested form may be a part): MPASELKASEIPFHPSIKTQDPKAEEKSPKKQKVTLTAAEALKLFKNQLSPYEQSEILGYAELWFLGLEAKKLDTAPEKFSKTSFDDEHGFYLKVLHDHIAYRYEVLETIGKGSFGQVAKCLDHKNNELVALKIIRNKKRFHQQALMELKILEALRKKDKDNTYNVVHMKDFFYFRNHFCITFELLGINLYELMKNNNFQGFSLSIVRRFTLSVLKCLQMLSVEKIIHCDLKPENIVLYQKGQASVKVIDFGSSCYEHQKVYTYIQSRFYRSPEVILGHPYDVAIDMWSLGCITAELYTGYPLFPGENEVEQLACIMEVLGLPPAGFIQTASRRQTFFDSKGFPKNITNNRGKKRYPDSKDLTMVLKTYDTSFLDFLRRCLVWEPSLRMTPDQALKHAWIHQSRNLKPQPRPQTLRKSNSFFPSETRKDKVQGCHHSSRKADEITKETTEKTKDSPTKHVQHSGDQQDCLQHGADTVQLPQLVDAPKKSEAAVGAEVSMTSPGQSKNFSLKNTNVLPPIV
Sequence of Serine/threonine-protein kinase PLK2 (Homo sapiens) (Q9NYY3 whole entry, looked up, the tested form may be a part): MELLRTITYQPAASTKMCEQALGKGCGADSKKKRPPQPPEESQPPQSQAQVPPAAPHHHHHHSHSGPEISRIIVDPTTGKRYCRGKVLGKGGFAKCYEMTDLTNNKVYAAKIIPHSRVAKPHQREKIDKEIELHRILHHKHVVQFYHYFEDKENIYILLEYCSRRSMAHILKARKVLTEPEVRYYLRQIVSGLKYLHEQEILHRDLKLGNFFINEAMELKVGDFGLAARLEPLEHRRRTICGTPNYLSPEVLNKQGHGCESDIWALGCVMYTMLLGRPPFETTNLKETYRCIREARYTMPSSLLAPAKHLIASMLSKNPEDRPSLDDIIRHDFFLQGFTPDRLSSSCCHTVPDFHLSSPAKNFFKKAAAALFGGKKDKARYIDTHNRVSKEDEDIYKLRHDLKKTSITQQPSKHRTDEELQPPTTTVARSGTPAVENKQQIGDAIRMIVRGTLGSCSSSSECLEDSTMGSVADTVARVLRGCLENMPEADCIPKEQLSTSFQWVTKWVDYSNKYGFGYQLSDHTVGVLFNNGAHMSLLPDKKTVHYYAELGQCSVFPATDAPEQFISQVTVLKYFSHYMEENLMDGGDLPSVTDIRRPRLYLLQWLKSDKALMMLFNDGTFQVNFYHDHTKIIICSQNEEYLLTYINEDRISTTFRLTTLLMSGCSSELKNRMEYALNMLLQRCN
Sequence of Calcium/calmodulin-dependent protein kinase type II subunit beta (Homo sapiens) (Q13554 whole entry): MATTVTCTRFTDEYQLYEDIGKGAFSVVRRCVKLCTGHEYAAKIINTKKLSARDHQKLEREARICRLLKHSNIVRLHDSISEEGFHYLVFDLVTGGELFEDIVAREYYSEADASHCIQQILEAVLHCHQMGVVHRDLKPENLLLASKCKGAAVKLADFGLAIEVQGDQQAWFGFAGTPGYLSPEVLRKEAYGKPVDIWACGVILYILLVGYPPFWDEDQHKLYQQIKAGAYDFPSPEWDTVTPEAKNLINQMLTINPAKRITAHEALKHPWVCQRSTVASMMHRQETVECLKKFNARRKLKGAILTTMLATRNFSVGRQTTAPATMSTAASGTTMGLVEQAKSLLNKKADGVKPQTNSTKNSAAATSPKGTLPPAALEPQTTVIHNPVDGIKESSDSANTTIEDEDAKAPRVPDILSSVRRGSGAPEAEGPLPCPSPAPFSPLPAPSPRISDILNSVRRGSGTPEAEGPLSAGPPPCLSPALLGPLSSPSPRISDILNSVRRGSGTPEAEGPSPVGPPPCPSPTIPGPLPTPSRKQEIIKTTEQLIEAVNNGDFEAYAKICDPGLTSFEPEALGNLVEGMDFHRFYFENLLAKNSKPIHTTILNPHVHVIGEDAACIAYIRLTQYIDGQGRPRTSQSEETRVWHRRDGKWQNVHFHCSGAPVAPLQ
Sequence of Mitogen-activated protein kinase 11 (Homo sapiens) (Q15759 whole entry): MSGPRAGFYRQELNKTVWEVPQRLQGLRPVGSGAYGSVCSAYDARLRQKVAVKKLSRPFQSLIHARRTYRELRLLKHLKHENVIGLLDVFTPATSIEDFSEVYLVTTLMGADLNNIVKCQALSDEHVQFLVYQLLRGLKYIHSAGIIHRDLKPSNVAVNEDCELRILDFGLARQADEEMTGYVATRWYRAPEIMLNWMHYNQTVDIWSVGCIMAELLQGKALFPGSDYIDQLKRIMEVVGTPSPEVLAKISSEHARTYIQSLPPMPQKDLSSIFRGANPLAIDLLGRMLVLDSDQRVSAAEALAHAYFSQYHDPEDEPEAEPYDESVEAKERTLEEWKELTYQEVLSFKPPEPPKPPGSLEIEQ

In the case of CNC(=O)Nc1ccc(-c2nc(N3CC4CCC(C3)O4)c3cnn(C4CCC5(CC4)OCCO5)c3n2)cc1, the Activity (HCT-116) is reported as “Active”, the inhibition [1] is reported as 7% and the inhibition [2] is reported as 13%. The inhibition [3] was 3%, the Activity (A498) was “Active” and the inhibition [4] was 1%. The inhibition [5] was 1%, the IC50 (NCI-H157) was 145 nM and the inhibition [6] was 11%. For the same compound, the inhibition [7] was 0%, the Activity (MDA-MB-361 [8]) was “Active” and the IC50 (MDA-MB-231) was 60 nM. For the same compound, the inhibition [9] was 3%, the inhibition [10] was 12% and the inhibition (mTORC2 (Homo sapiens)) was “Active”. The inhibition [11] was 1%, the inhibition [12] was 1% and the inhibition [13] was 4%. The inhibition [14] was 14%, the inhibition [15] was 2% and the inhibition [16] was 8%. The Activity (MDA-MB-361 [17]) was “Active”, the IC50 [18] was 0.19 nM and the inhibition [19] was 0%. It also gave an inhibition [20] of 2%.
